Data from patent US5948755A, “Cyclosporin compound, its preparation and the pharmaceutical compositions which contain it” (Rhone-Poulenc Rorer S.A., priority 1996, dated 1999).

Experiments:
retrovirus (HIV) = details: read-out: average for the active concentrations (IC50); technique of Pauwells et al.; first of the two values printed
[1] = at concentrations displaying anti-retrovirus activity
[2] = EP 484281 and Eur. J. Immunol., 17, 1359 (1987); cited from earlier work

Compound	IC50 (retrovirus (HIV)) [nM]	cytotoxic or cytostatic effect [1]	immunosuppressing nature [2]
C/C=C/C[C@@H](C)[C@@H](O)[C@H]1C(=O)N[C@@H](CC)C(=O)N(C)[C@H](SC)C(=O)N(C)[C@@H](CC(C)(C)O)C(=O)N[C@@H](C(C)C)C(=O)N(C)[C@@H](CC(C)C)C(=O)N[C@@H](C)C(=O)N[C@H](C)C(=O)N(C)[C@@H](CC(C)C)C(=O)N(C)[C@@H](CC(C)C)C(=O)N(C)[C@@H](C(C)C)C(=O)N1C [formula (I), [(R)-Methylthio-Sar]^3-[4'-hydroxy-MeLeu]^4-cyclosporin A]	70	devoid of any cytotoxic or cytostatic effect	–
[4'-hydroxy-MeLeul]^4 -cyclosporin	–	–	are not immunosuppressants
